Results taken from PubChem BioAssay AID518 (Sanford-Burnham Center for Chemical Genomics, 2006).

Target: Alkaline phosphatase, tissue-nonspecific isozyme (Homo sapiens) (UniProt P05186)
Assay: inhibition of tissue-nonspecific alkaline phosphatase – biochemical, luminescent (AID 518)
Conditions: purified TNAP enzyme, luminescent substrate readout

Alkaline phosphatase, tissue-nonspecific isozyme (Homo sapiens), sequence (P05186 whole entry, looked up): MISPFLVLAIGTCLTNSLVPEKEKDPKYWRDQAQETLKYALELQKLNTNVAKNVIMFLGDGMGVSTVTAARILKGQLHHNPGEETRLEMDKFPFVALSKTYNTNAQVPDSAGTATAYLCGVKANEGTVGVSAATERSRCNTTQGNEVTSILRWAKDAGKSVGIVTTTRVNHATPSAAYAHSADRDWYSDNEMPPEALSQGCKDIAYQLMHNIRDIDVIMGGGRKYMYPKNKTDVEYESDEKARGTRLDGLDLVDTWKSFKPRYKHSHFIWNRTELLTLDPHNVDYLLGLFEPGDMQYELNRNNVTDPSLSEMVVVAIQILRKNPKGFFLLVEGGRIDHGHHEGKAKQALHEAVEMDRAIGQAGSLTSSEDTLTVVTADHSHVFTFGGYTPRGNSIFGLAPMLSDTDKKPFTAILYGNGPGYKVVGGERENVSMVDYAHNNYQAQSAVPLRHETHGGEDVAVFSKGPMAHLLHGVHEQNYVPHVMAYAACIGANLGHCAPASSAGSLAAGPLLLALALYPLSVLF

Row | SMILES | IC50 [µM]
1 | COCc1[nH]nc2c1C(c1cc(OC)c(O)c(OC)c1)C(C#N)=C(N)O2 (stereo not drawn) | 5.25
2 | C/C(N)=C(/C#N)C(=O)CSc1n[nH]c(-c2ccccc2Br)n1 | 1.73
3 | O=C1C2CC=CCC2C(=O)N1c1n[nH]c(Cc2ccccc2)n1 (stereo not drawn) | 0.33
